Entries after “also recorded” stand apart in the source; their conditions may differ.
Experiments:
mitochondrial function = conditions: THC 10 to 50 micromolar; cited from earlier work
Aβ in N2a/AβPPswe cells = assay: Sandwich ELISA of Aβ in N2a/AβPPswe cells treated with THC and CB1 inhibitor rimonabant; assay type: cell-based, human; conditions: 25 nM THC with no rimonabant; 36 hour and later time points; FIG. 2
Protocol: The mechanism of action was elucidated for THC's effect on Aβ levels using a sandwich ELISA assay. N2a/AβPPswe cells, as discussed in Example 1, were suspended to 2×10^5/mL, 3 mL plated into each well, and grown in DMEM with 10% fetal bovine serum, 100 U/mL penicillin, 100 μg/mL streptomycin, and 400 μg/mL G418 (Invitrogen), at 37° C. in the presence of 5% CO2. N2a/AβPPswe cells were subcultured using trypsin, and pipetted numerous times to ensure cells were separated into individual cells. Cells were counted, as provided in Example 1, and proper amount of cell medium and fresh medium was added into new flasks according to the ratio of dilution. Pipetting was performed 10 times to homogenize cells, and 3 mL of cells were seeded into medium into each 6 well plate. When one pipette was used up, the cells were mixed in the flask before using them for the next pipette. Compounds were suspended in DMSO.
12 hours after cells were plated, cells were treated with 25 nM of Δ9-THC (T4764-1ML Sigma Aldrich, Merck KGaA; Darmstadt, Germany), with the known inhibitor of the CB1 receptor, rimonabant, at 0 μM, 100 μM, 10 μM, 1 μM, or 0.1 μM rimonabant. Untreated N2a/AβPPswe cells were used as a control. Treatment was then washed out, i.e. the medium was then removed from the cultures and 3 mL of media containing the treatment compounds were added. Cells were collected at 12 hours afterwards, 48 hours afterwards, 60 hours afterwards, and 72 hours afterwards, and ELISA was conducted on the cells.
ELISA assay was performed on the cells using 50 μL of goat anti-PWT1-42 antibody solution, which was incubated overnight, followed by a 1-hour incubation with 0.1% I-block buffer. The tissue culture supernatant was diluted 1:10 with diluent buffer containing a protease inhibitor. Standards were prepared by serial dilution, as provided in Example 1. The plate was washed and 50 μL of sample or standard was added with triplication. 50 μL of both Biosource 40/42 (HS) (primary antibody) Aβ and a standard solution was added to each well and incubated for 3 hours followed by 5× wash with PBST. […]

[1] = molecular target: AChE induced Aβ aggregation (Homo sapiens, UniProt P22303); conditions: THC 50 μM; cited from earlier work
Sequence of AChE induced Aβ aggregation (P22303 32-614): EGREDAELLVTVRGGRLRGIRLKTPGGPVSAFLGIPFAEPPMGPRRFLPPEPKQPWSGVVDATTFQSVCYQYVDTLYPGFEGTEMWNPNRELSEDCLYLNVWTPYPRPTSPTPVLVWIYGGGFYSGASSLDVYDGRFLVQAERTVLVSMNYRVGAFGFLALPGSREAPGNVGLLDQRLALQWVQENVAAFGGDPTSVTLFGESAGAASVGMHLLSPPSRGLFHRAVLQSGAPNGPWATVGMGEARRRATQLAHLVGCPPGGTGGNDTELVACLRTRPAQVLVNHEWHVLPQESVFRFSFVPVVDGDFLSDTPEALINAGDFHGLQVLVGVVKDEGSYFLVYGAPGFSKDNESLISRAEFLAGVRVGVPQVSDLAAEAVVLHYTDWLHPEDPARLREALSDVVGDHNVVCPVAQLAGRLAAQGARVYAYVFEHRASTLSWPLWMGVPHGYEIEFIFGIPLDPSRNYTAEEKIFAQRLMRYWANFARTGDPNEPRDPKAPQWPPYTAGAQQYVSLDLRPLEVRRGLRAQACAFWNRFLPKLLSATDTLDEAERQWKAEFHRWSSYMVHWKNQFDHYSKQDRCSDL

[2] = system: isolated mitochondria from N2a/AβPPswe cells; assay: Respiratory function of isolated mitochondria (Clark type oxygen electrode); assay type: cell-based
Protocol: FIG. 14A is a graph showing basal mitochondrial function after treatment with THC and a combination of THC and melatonin. N2a/AβPPswe cells were cultured in 10 cm tissue culture plate and then treated with drugs for 36 hours and mitochondria were harvested and tested for their ability of using oxygen utilization. Samples were loaded as follows; Ctrl, Control, or 10^−5 M Melatonin with 2.5 nM THC, 10^−6 M Melatonin with 2.5 nM THC, 2.5 nM THC, 10^−5 M Melatonin, or 10^−6 M Melatonin+2.5 nM THC.
FIG. 14B is a graph showing mitochondrial function in the presence of FCCP after treatment with THC alone as well as with a combination of THC and melatonin. N2a/AβPPswe cells were cultured in 10 cm tissue culture plate and then treated with drugs for 36 hours and mitochondria were harvested and tested for their ability of using oxygen utilization. Samples were loaded as follows; Ctrl, Control, or 10^−5 M Melatonin with 2.5 nM THC, 10^−6 M Melatonin with 2.5 nM THC, 2.5 nM THC, 10^−5 M Melatonin, or 10^−6 M Melatonin+2.5 nM THC.

[3] = system: phosphorylated Tau (pTau); assay: Western blot of phosphorylated Tau in N2a/AβPPswe cells; assay type: cell-based
Protocol: (§1) FIG. 6C is a western blot assay showing Tau and phosphorylated Tau (pTau) levels in N2a/AβPPswe treated with 25 nM THC, 2.5 nM THC, or 0.25 nM THC. Anti-Tau, anti-pTau and β-actin antibodies were used to detect Tau and pTau, and β-actin that served as the protein loading control.
(§2) FIG. 11C is a western blot assay showing Tau and phosphorylated Tau levels in N2a/AβPPswe treated as follows: untreated (CTRL, control), or 10^−5 M Melatonin with 2.5 nM THC, 10^−6 M Melatonin with 2.5 nM THC. Anti-Tau and anti-pTau antibodies were used to […] that served as the protein loading control.
(§3) Amyloid processing and ancillary amyloid protein effects were next tested. After stripping the Western, and restaining for AβPP, using anti-Tau (Chuanhai Cao, Tampa, Fla.), anti-pTau (Chuanhai Cao, Tampa, Fla.), and anti-β-actin antibodies (Cat #A54441, Sigma Aldrich, Merck KGaA; Darmstadt, Germany)) were used to detect Tau levels against a protein loading control (β-actin). After data was collected the membrane was stripped using a western blot striping buffer (Cat #21059, Thermo Fisher Scientific, Waltham, Mass.) and stained for AβPP using 6E10 antibody (Cat #803002, BioLegend, Inc., San Diego, Calif.). Anti-mouse secondary horseradish peroxidase (Cat #A9044, Sigma Aldrich, Merck KGaA; Darmstadt, Germany) secondary antibodies were used.

Tau = assay: Western blot of Tau in N2a/AβPPswe cells; assay type: cell-based
Protocol: as §1, §2, §3

[4] = molecular target: Aβ peptide amino acids 1-10, the major B-cell epitope (Homo sapiens, UniProt P05067); assay: ELISA for THC interference with the major B cell epitope of Aβ; assay type: binding; conditions: each increasing concentration of THC; FIG. 3B
Sequence of Aβ peptide amino acids 1-10, the major B-cell epitope (P05067 672-711 limits assumed): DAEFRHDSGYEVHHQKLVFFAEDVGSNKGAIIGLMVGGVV
Protocol: In untreated samples, Aβ peptide increased in intensity for the first 20 minutes, followed by a plateauing of fluorescence at around 30 minutes, at which time the intensity remained constant for the duration of the study. […] Therefore, THC's direct interaction with the Aβ peptide will not dampen an immune response to clear the Aβ peptide. Further analysis with western blot was performed measuring the anti-aggregation properties of THC with Aβ peptide.

brain energy metabolism = conditions: repeated high doses of THC (10 mg/kg body weight); rat brains; cited from earlier work
[5] = molecular target: acetylcholinesterase (AChE) (Homo sapiens, UniProt P22303); conditions: THC 50 μM; cited from earlier work
Sequence of acetylcholinesterase (AChE) (P22303 32-614): as the sequence (P22303 32-614) above

**Q.** For `CCCCCc1cc(O)c2c(c1)OC(C)(C)[C@@H]1CCC(C)=C[C@@H]21` [THC, Δ9-tetrahydrocannabinol], which Cell death (mitochondrial function) is on record?
**A.** induces cell death

**Q.** And the Mitochondrial function (mitochondrial function)?
**A.** inhibitor of mitochondrial function

**Q.** What about the Aβ levels (Aβ in N2a/AβPPswe cells) of the same compound?
**A.** significantly lower Aβ; also recorded: marked decreases

**Q.** What about the “AChE induced Aβ aggregation” value [1] of the same compound?
**A.** prevents AChE induced Aβ aggregation

**Q.** And the “Respiration / oxygen utilization of isolated mitochondria” value ([2]; 2.5 nM THC alone or with 10 μM or 1 μM melatonin, early and late stages of respiration)?
**A.** higher oxygen utilization

**Q.** And the “Basal mitochondrial function (oxygen utilization)” value ([2]; 36 hours treatment, FIG. 14A)?
**A.** enhance mitochondrial function

**Q.** And the “Mitochondrial function in the presence of FCCP” value ([2]; 36 hours treatment, FIG. 14B)?
**A.** enhance mitochondrial function

**Q.** And the “Ratio of pTau:Tau among THC concentrations” value ([3]; 2.5 nM THC, FIG. 8)?
**A.** peak of pTau:Tau ratio

**Q.** And the “Phosphorylated Tau levels, THC alone” value ([3]; 25 nM, 2.5 nM, 0.25 nM THC, FIGS. 6C, 6D)?
**A.** reduction by THC in a dose-dependent manner; also recorded: lowers the phosphorylation of tau in a dose dependent manner; also recorded: decreases phosphorylated Tau

**Q.** What about the “Ratio of phosphorylated Tau to Tau, THC alone” value ([3]; 25 nM, 2.5 nM, 0.25 nM THC, FIGS. 8, 13) of the same compound?
**A.** increase the ratio of pTau:Tau; also recorded: increase in phosphorylated Tau; also recorded: increases phosphorylated Tau

**Q.** What about the “Tau level among THC concentrations” value (Tau; 2.5 nM THC, FIGS. 6C, 7) of the same compound?
**A.** lowest level of Tau

**Q.** What about the “Tau protein levels (standardized to β-actin), THC alone” value (Tau; 25 nM, 2.5 nM, 0.25 nM THC, FIG. 7) of the same compound?
**A.** lowers the production of Tau; also recorded: reduces Tau protein levels

**Q.** What about the “Interference with the major B cell epitope of Aβ (ELISA absorbance)” value [4] of the same compound?
**A.** No identified interference; also recorded: no significant difference in absorbance

**Q.** And the Brain energy metabolism (brain energy metabolism)?
**A.** dampen the brain energy metabolism

**Q.** And the “Inhibition of AChE” value [5]?
**A.** competitively inhibits

Source: patent US11446276B2, “Extreme low dose THC as a therapeutic and prophylactic agent for Alzheimer's disease” (University of South Florida, priority 2015, dated 2022)
